Read-outs that look alike come from different tables or passages of the source.
Columns and labels:
[1] = system: 60 different human tumor cell lines; conditions: for CC50: read-out: LC50
LOX IMVI = assay: Melanoma cytotoxicity assay (resazurin); format: cell-based; conditions: LOX IMVI melanoma cells, resazurin
Procedure, shortened: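 Readout: resazurin fluorescence (ex 544, em 590 nm) after 6 h dye incubation, following 24 h compound exposure of ~4000 cells/well. Viability = background-subtracted signal over DMSO wells; IC50 by sigmoidal curve fitting.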

SK-MEL-5 = assay: Melanoma cytotoxicity assay (resazurin); format: cell-based; conditions: SK-MEL-5 melanoma cells, 24 hours with compound, resazurin; concentration not given
Procedure, shortened: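 Growth inhibition was scored by resazurin reduction over 6 h, read by fluorescence, after cells had been treated with serially diluted compounds for 24 h. Background from medium-only wells was subtracted and signal expressed relative to DMSO controls.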

SR = assay: NCI 60 five dose screen
[2] = SK-MEL-28 (Melanoma), five dose
[3] = SK-OV-3 (Ovarian Cancer), five dose
[4] = SN12C (Renal Cancer), five dose
[5] = SW-620 (Colon Cancer), five dose
[6] = T-47D (Breast Cancer), five dose
[7] = TK-10 (Renal Cancer), five dose
[8] = UO-31 (Renal Cancer), five dose

(1S,2R,13R,14S,18S)-7-(3-fluoroanilino)-2,18-dimethyl-6-thia-8-azapentacyclo[11.7.0.02,10.05,9.014,18]icosa-5(9),7,10-trien-17-one [IIa.8]
TGI ([1]; SF-268 (CNS Cancer), five dose): 1.11E−5 | GI50 ([1]; SK-MEL-2 (Melanoma), five dose): 1.86 µM | TGI ([1]; SK-MEL-2 (Melanoma), five dose): 5.19E−5 | GI50 ([1]; SK-MEL-5 (Melanoma), five dose): 2.02 µM | TGI ([1]; SK-MEL-5 (Melanoma), five dose): 4.32E−6 | GI50 [1, 2]: 1.52 µM | TGI [1, 2]: 4.27E−6 | GI50 [1, 3]: 2.33 µM | TGI [1, 3]: 6.10E−6 | GI50 [1, 4]: 2.36 µM | TGI [1, 4]: 6.02E−6 | GI50 ([1]; SNB-19 (CNS Cancer), five dose): 2.33 µM | TGI ([1]; SNB-19 (CNS Cancer), five dose): 5.69E−6 | GI50 ([1]; SNB-75 (CNS Cancer), five dose): 1.52 µM | TGI ([1]; SNB-75 (CNS Cancer), five dose): 4.94E−6 | GI50 [1, 5]: 2.33 µM | TGI [1, 5]: 4.99E−6 | GI50 [1, 6]: 2.22 µM | TGI [1, 6]: 6.95E−6 | GI50 [1, 7]: 1.97 µM | TGI [1, 7]: 4.15E−6 | GI50 ([1]; U251 (CNS Cancer), five dose): 1.59 µM | TGI ([1]; U251 (CNS Cancer), five dose): 3.68E−6 | GI50 ([1]; UACC-62 (Melanoma), five dose): 1.54 µM | TGI ([1]; UACC-62 (Melanoma), five dose): 3.12E−6 | GI50 ([1]; UACC-257 (Melanoma), five dose): 5.47 µM | TGI ([1]; UACC-257 (Melanoma), five dose): 6.45E−5 | GI50 [1, 8]: 1.67 µM | TGI [1, 8]: 3.59E−6 | GI50 ([1]; four of six central nervous system (CNS) cell lines): < 2 µM | CC50 ([1]; 786-0 (Renal Cancer), five dose): 5.61 µM | CC50 ([1]; A498 (Renal Cancer), five dose): > 100 µM | CC50 ([1]; A549/ATCC (Non-small Cell Lung Cancer), five dose): > 100 µM | CC50 ([1]; ACHN (Renal Cancer), five dose): 5.92 µM | CC50 ([1]; BT-549 (Breast Cancer), five dose): 8.49 µM | CC50 ([1]; CAKI-1 (Renal Cancer), five dose): 38.1 µM | CC50 ([1]; CCRF-CEM (Leukemia), five dose): > 100 µM | CC50 ([1]; COLO 205 (Colon Cancer), five dose): 24.4 µM | CC50 ([1]; DU-145 (Prostate Cancer), five dose): 27.4 µM | CC50 ([1]; EKVX (Non-small Cell Lung Cancer), five dose): > 100 µM | CC50 ([1]; HCC-2998 (Colon Cancer), five dose): 88 µM | CC50 ([1]; HCT-15 (Colon Cancer), five dose): 14.7 µM | CC50 ([1]; HCT-116 (Colon Cancer), five dose): 6.58 µM | CC50 ([1]; HL-60(TB) (Leukemia), five dose): > 100 µM | CC50 ([1]; HOP-62 (Non-small Cell Lung Cancer), five dose): 24.5 µM | CC50 ([1]; HOP-92 (Non-small Cell Lung Cancer), five dose): 7.73 µM | CC50 ([1]; HT29 (Colon Cancer), five dose): 8.28 µM | CC50 ([1]; IGROV1 (Ovarian Cancer), five dose): 7.76 µM | CC50 ([1]; K-562 (Leukemia), five dose): > 100 µM | CC50 ([1]; KM12 (Colon Cancer), five dose): 79.2 µM | CC50 ([1]; LOX IMVI (Melanoma), five dose): 6.16 µM | CC50 ([1]; M14 (Melanoma), five dose): 81.4 µM | CC50 ([1]; MALME-3M (Melanoma), five dose): 26.7 µM | CC50 ([1]; MCF7 (Breast Cancer), five dose): 7.87 µM | CC50 ([1]; MDA-MB-231/ATCC (Breast Cancer), five dose): 9.99 µM | CC50 ([1]; MDA-MB-435 (Melanoma), five dose): > 100 µM | CC50 ([1]; MOLT-4 (Leukemia), five dose): > 100 µM | CC50 ([1]; NCI-H23 (Non-small Cell Lung Cancer), five dose): 77.7 µM | CC50 ([1]; NCI-H226 (Non-small Cell Lung Cancer), five dose): 81.5 µM | CC50 ([1]; NCI-H460 (Non-small Cell Lung Cancer), five dose): > 100 µM | CC50 ([1]; NCI-H522 (Non-small Cell Lung Cancer), five dose): 5.75 µM | CC50 ([1]; NCI/ADR-RES (Ovarian Cancer), five dose): > 100 µM | CC50 ([1]; OVCAR-3 (Ovarian Cancer), five dose): 6.34 µM | CC50 ([1]; OVCAR-4 (Ovarian Cancer), five dose): > 100 µM | CC50 ([1]; OVCAR-5 (Ovarian Cancer), five dose): > 100 µM | CC50 ([1]; OVCAR-8 (Ovarian Cancer), five dose): 68.7 µM | CC50 ([1]; PC-3 (Prostate Cancer), five dose): 7.94 µM | CC50 ([1]; RXF 393 (Renal Cancer), five dose): 7.31 µM | CC50 ([1]; SF-268 (CNS Cancer), five dose): > 100 µM | CC50 ([1]; SK-MEL-2 (Melanoma), five dose): 26.7 µM | CC50 ([1]; SK-MEL-5 (Melanoma), five dose): 9.24 µM | CC50 [1, 3]: > 100 µM | CC50 [1, 4]: 36 µM | CC50 ([1]; SNB-19 (CNS Cancer), five dose): 22.7 µM | CC50 ([1]; SNB-75 (CNS Cancer), five dose): > 100 µM | CC50 [1, 5]: > 100 µM | CC50 [1, 6]: > 100 µM | CC50 [1, 7]: 8.72 µM | CC50 ([1]; U251 (CNS Cancer), five dose): 8.51 µM | CC50 ([1]; UACC-62 (Melanoma), five dose): 6.31 µM | CC50 ([1]; UACC-257 (Melanoma), five dose): > 100 µM | CC50 [1, 8]: 7.69 µM | LOX-IMVI (% inhibition) (LOX IMVI; 24 hours with compound, concentration not given): 79% | IC50 (LOX IMVI; 24 hours): > 20 µM | SK-MEL-5 (% inhibition) (SK-MEL-5): 84% | GI50 (SR; SR (Leukemia), five dose): 0.859 µM | 50% growth inhibition (GI50) (SR; leukemia cell line SR): submicromolar | CC50 (SR; read-out: LC50, SR (Leukemia), five dose): > 100 µM
